Results taken from patent US11759496B2, “Compounds and pharmaceutical use thereof in the treatment of cancer” (priority 2016, dated 2023).
Non-standard residues stand in square brackets, D forms with d. Residues, ends and D or L forms follow the SMILES beside them. NMeR = CN[C@@H](CCCNC(=N)N)C(=O)O; Nle = CCCC[C@H](N)C(=O)O

Legend:
MEC-1 cells = assay: MEC-1 cell death (PCD) after 2 h peptide treatment; format: cell-based; settings: for MEC-1 Cell Death (%) 2 h, [peptides] = 200 μM: Table 3, 200 μM peptide; for Cell Death (MEC-1, 2 h): Table 4
Description: Then the peptides structures were tested via NMR and X-ray. The peptides were also tested for their activity on MEC-1 and their KDs and Retention times on LCMS were determined.

[1] = target: T1, CD47 (membrane preparation from MEC-1 cells) (Homo sapiens, UniProt Q08722); assay: Binding affinity by biolayer interferometry (Octet RED96) on biotinylated MEC-1 cell membrane preparation; settings: NPD = Non Pertinent Data; for Kd(μM)PR: Table 4, N-methyl peptides; for Kd (μM): Table 3, average of two or more measurements
T1 construct: MEC-1 cell membrane preparation were biotinylated with the EZ-Link NHS-PEG4-Biotin kit; endogenous in cells; host or cells: MEC-1 cells (membrane preparation)
T1 sequence (Q08722 19-323): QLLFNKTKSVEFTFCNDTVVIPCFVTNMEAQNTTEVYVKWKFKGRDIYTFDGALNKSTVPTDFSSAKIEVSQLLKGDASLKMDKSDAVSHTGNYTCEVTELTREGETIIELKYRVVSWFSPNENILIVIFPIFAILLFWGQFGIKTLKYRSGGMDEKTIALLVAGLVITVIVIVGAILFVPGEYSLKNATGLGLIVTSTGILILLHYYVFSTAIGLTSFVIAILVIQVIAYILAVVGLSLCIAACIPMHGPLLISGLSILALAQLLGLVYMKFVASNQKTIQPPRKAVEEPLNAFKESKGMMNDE
Description: The binding affinities of peptides for a membrane preparation from MEC-1 cells were measured by biolayer interferometry on an Octet RED96 System (Pall FortéBio Corp., Menlo Park, Calif.).
The binding affinities of peptides for a membrane preparation from MEC-1 cells were measured by biolayer interferometry on an Octet RED96 System (Pall FortéBio Corp., Menlo Park, Calif.). This system monitors interference of light reflected from two sources (an internal reflection surface and the liquid/solid interface of a fiber optic sensor) to measure the rate of binding of molecules to the biosensor surface.
MEC-1 cell membrane preparation were biotinylated with the EZ-Link NHS-PEG4-Biotin kit from Thermo-Scientific. Biotinylated membranes were then loaded onto SuperStreptavidin (SSA) biosensors (Pall FortéBio Corp.) at empirically determined concentrations.
In order to highlight the pharmacological properties of these peptides, a systematic SAR study by the development of a binding assay allowing to the assessment of the affinity of the 4N1K analogues to CD47 was initiated. […] An Ala-scan to identify the pharmacophores of 4N1K was implemented.
The binding affinities of peptides for a MEC-1 cells membrane preparation were measured by biolayer interferometry on an Octet RED96 System (Pall FortéBio Corp., Menlo Park, Calif.). This system monitors interference of light reflected from two sources (an internal reflection surface and the liquid/solid interface of a fiber optic sensor) to measure the rate of binding of molecules to the biosensor surface. MEC-1 cells membrane preparation is biotinylated with the EZ-Link NHS-PEG4-Biotin kit from Thermo-Scientific and excess biotin is removed using desalting column from Thermo-Scientific. Biotinylated membranes are then loaded onto SuperStreptavidin (SSA) biosensors (Pall FortéBio Corp.) at empirically determined concentrations. […] Typically, the biosensors were pre-equilibrated in PBS containing either biotinylated membranes or biocytine 100 μg/mL. Biosensors are then equilibrated in assay buffer for 10 min, brought to baseline in assay buffer for 60 sec. and transferred to wells containing peptide in dose-response (association for 120 sec. and dissociation for 300 sec.). The double reference with either membrane-loaded biosensors without any peptide dose-response or biocytine-loaded biosensors with each peptide dose-response were run in parallel for background signal double subtractions. Binding kinetics were calculated using the FortéBio Data Analysis v8.2 software.

Compound | MEC-1 Cell Death (%) 2 h, [peptides] = 200 μM (MEC-1 cells) | Kd(μM)PR [1] | Cell Death (MEC-1, 2 h) (MEC-1 cells) | also measured
CCCC[C@H](NC(=O)[C@@H](NC(=O)[C@@H](NC(=O)[C@H](Cc1ccc(O)cc1)NC(=O)[C@H](Cc1ccccc1)NC(=O)[C@H](CCCNC(=N)N)NC(=O)[C@H](N)CCCCN)C(C)C)C(C)C)C(=O)N[C@@H](Cc1c[nH]c2ccccc12)C(=O)N[C@@H](CCCCN)C(=O)N[C@H](CCCCN)C(=O)O [M/Nle, kRFYVV(Nle)WKk] (H-[dK]RFYVV[Nle]WK[dK]-OH) | 47% | – | – | –
CSCC[C@H](NC(=O)[C@@H](NC(=O)[C@@H](NC(=O)[C@H](Cc1ccc(O)cc1)NC(=O)[C@H](Cc1ccccc1)NC(=O)[C@H](CCCNC(=N)N)NC(=O)[C@H](CCCCN)NC(C)=O)C(C)C)C(C)C)C(=O)N[C@@H](Cc1c[nH]c2ccccc12)C(=O)N[C@@H](CCCCN)C(=O)N[C@@H](CCCCN)C(N)=O [compound 2] (Ac-KRFYVVMWKK-NH2) | – | – | – | MEC-1 Cell Death (%) 2 h (MEC-1 cells; Table 2, NPD = Non Pertinent Data): 30%
CSCC[C@H](NC(=O)[C@@H](NC(=O)[C@@H](NC(=O)[C@H](Cc1ccc(O)cc1)NC(=O)[C@H](Cc1ccccc1)N(C)C(=O)[C@H](CCCNC(=N)N)NC(=O)[C@H](N)CCCCN)C(C)C)C(C)C)C(=O)N[C@@H](Cc1c[nH]c2ccccc12)C(=O)N[C@@H](CCCCN)C(=O)N[C@H](CCCCN)C(=O)O [PKT10, H-(D)K R ψ(CONMe)F Y V V M W K (D)K-OH] | – | NPD | 0% | –
CSCC[C@H](NC(=O)[C@@H](NC(=O)[C@@H](NC(=O)[C@H](Cc1ccc(O)cc1)NC(=O)[C@H](Cc1ccccc1)NC(=O)[C@H](CCCNC(=N)N)N(C)C(=O)[C@H](N)CCCCN)C(C)C)C(C)C)C(=O)N[C@@H](Cc1c[nH]c2ccccc12)C(=O)N[C@@H](CCCCN)C(=O)N[C@H](CCCCN)C(=O)O [PKT11, H-(D)K ψ(CONMe)R F Y V V M W K (D)K-OH] | – | – | 60% | –
CSCC[C@H](NC(=O)[C@@H](NC(=O)[C@@H](NC(=O)[C@H](Cc1ccc(O)cc1)N(C)C(=O)[C@H](Cc1ccccc1)NC(=O)[C@H](CCCNC(=N)N)NC(=O)[C@H](N)CCCCN)C(C)C)C(C)C)C(=O)N[C@@H](Cc1c[nH]c2ccccc12)C(=O)N[C@@H](CCCCN)C(=O)N[C@H](CCCCN)C(=O)O [PKT9, H-(D)K R F ψ(CONMe)Y V V M W K (D)K-OH] | – | NPD | 0% | –
CC(C)C[C@H](NC(=O)[C@@H](NC(=O)[C@@H](NC(=O)[C@H](Cc1ccc(O)cc1)NC(=O)[C@H](Cc1ccccc1)NC(=O)[C@H](CCCNC(=N)N)N(C)C(=O)[C@H](N)CCCCN)C(C)C)C(C)C)C(=O)N[C@@H](Cc1c[nH]c2ccccc12)C(=O)N[C@@H](CCCCN)C(=O)N[C@H](CCCCN)C(=O)O [PKT17, H-(D)K ψ(CONMe)R F Y V V L W K (D)K-OH] (H-[dK][NMeR]FYVVLWK[dK]-OH) | – | – | 30% | –
CSCC[C@H](NC(=O)[C@@H](NC(=O)[C@@H](NC(=O)[C@H](Cc1ccc(O)cc1)NC(=O)[C@H](Cc1ccccc1)NC(=O)[C@H](CCCNC(=N)N)NC(=O)[C@H](N)CCCCN)C(C)C)C(C)C)C(=O)N[C@@H](Cc1c[nH]c2ccccc12)C(=O)N[C@@H](C)C(=O)N[C@H](CCCCN)C(=O)O [K9/A, kRFYVVMW(A)k] (H-[dK]RFYVVMWA[dK]-OH) | 46% | – | – | –
CSCC[C@H](NC(=O)[C@H](C(C)C)N(C)C(=O)[C@@H](NC(=O)[C@H](Cc1ccc(O)cc1)NC(=O)[C@H](Cc1ccccc1)NC(=O)[C@H](CCCNC(=N)N)NC(=O)[C@H](N)CCCCN)C(C)C)C(=O)N[C@@H](Cc1c[nH]c2ccccc12)C(=O)N[C@@H](CCCCN)C(=O)N[C@H](CCCCN)C(=O)O [PKT7, H-(D)K R F Y V ψ(CONMe)V M W K (D)K-OH] | – | NPD | 0% | –
H-(D)K R F Y V V M W ψ(CONMe)K (D)K-OH (KRFYVVMWKK; D-residues, N-methyl amide bond; (1)..(1) Amino acid at position 1 is in the D-configuration; (9)..(9) Amino acid at position 9 is backbone-N- …ON of the Lysine; (10)..(10) Amino acid at position 10 is in the D-configuration) [PKT14] | – | NPD | 35% | –
CSCC[C@H](NC(=O)[C@@H](NC(=O)[C@@H](NC(=O)[C@H](Cc1ccc(O)cc1)NC(=O)[C@H](Cc1ccccc1)NC(=O)[C@H](CCCNC(=N)N)N(C)C(=O)[C@H](N)CCCCN)C(C)C)C(C)C)C(=O)N[C@@H](Cc1c[nH]c2ccccc12)C(=O)N(C)[C@@H](CCCCN)C(=O)N[C@H](CCCCN)C(=O)O [PKT15, H-(D)K ψ(CONMe)R F Y V V M W ψ(CONMe)K (D)K-OH] | – | – | 10% | –
CC(C)[C@H](NC(=O)[C@H](Cc1ccc(O)cc1)NC(=O)[C@H](Cc1ccccc1)NC(=O)[C@H](CCCNC(=N)N)NC(=O)[C@H](N)CCCCN)C(=O)N[C@H](C(=O)N[C@@H](C)C(=O)N[C@@H](Cc1c[nH]c2ccccc12)C(=O)N[C@@H](CCCCN)C(=O)N[C@H](CCCCN)C(=O)O)C(C)C [M7/A, kRFYVV(A)WKk] (H-[dK]RFYVVAWK[dK]-OH; N-terminus and C-terminus assumed) | 6% | – | – | –
CSCC[C@H](NC(=O)[C@H](C)NC(=O)[C@@H](NC(=O)[C@H](Cc1ccc(O)cc1)NC(=O)[C@H](Cc1ccccc1)NC(=O)[C@H](CCCNC(=N)N)NC(=O)[C@H](N)CCCCN)C(C)C)C(=O)N[C@@H](Cc1c[nH]c2ccccc12)C(=O)N[C@@H](CCCCN)C(=O)N[C@H](CCCCN)C(=O)O [V6/A, kRFYV(A)MWKk] (H-[dK]RFYVAMWK[dK]-OH; N-terminus and C-terminus assumed) | 30% | – | – | Kd (μM) [1]: NPD
CSCC[C@H](NC(=O)[C@@H](NC(=O)[C@@H](NC(=O)[C@H](Cc1ccc(O)cc1)NC(=O)[C@H](Cc1ccccc1)NC(=O)[C@H](CCCNC(=N)N)NC(=O)[C@H](N)CCCCN)C(C)C)C(C)C)C(=O)N(C)[C@@H](Cc1c[nH]c2ccccc12)C(=O)N[C@@H](CCCCN)C(=O)N[C@H](CCCCN)C(=O)O [PKT12, H-(D)K R F Y V V M ψ(CONMe)W K (D)K-OH] | – | NPD | 0% | –
CSCC[C@H](NC(=O)[C@@H](NC(=O)[C@H](C(C)C)N(C)C(=O)[C@H](Cc1ccc(O)cc1)NC(=O)[C@H](Cc1ccccc1)NC(=O)[C@H](CCCNC(=N)N)NC(=O)[C@H](N)CCCCN)C(C)C)C(=O)N[C@@H](Cc1c[nH]c2ccccc12)C(=O)N[C@@H](CCCCN)C(=O)N[C@H](CCCCN)C(=O)O [PKT8, H-(D)K R F Y ψ(CONMe)V V M W K (D)K-OH] | – | NPD | 0% | –
CSCC[C@H](NC(=O)[C@@H](NC(=O)[C@H](C)NC(=O)[C@H](Cc1ccc(O)cc1)NC(=O)[C@H](Cc1ccccc1)NC(=O)[C@H](CCCNC(=N)N)NC(=O)[C@H](N)CCCCN)C(C)C)C(=O)N[C@@H](Cc1c[nH]c2ccccc12)C(=O)N[C@@H](CCCCN)C(=O)N[C@H](CCCCN)C(=O)O [V5/A, kRFY(A)VMWKk] (H-[dK]RFYAVMWK[dK]-OH; N-terminus and C-terminus assumed) | 12% | – | – | Kd (μM) [1]: NPD
CSCC[C@H](NC(=O)[C@@H](NC(=O)[C@@H](NC(=O)[C@H](Cc1ccc(O)cc1)NC(=O)[C@H](Cc1ccccc1)NC(=O)[C@H](C)NC(=O)[C@H](N)CCCCN)C(C)C)C(C)C)C(=O)N[C@@H](Cc1c[nH]c2ccccc12)C(=O)N[C@@H](CCCCN)C(=O)N[C@H](CCCCN)C(=O)O [R2/A, k(A)FYVVMWKk] (H-[dK]AFYVVMWK[dK]-OH) | 44% | – | – | –
H-(D)K ψ(CONMe)R F Y VV I W K (D)K-OH [PKT18] | – | – | 45% | –
